Test results published in PMC7449161, “Nonstationary Pharmacokinetics of Caspofungin in ICU Patients” (Antimicrobial Agents and Chemotherapy, 2020).
Read-outs that look alike come from different tables or passages of the source.

Assays:
[1] = Population pharmacokinetics of caspofungin in ICU patients (two-compartment nonlinear mixed-effects model); assay type: in vivo, human; settings: for clearance: human, serum, iv; for typical AUC0–24: maintenance dose of 50 mg
Excerpt: This study was registered at ClinicalTrials.gov under ID NCT03399032. It was a prospective observational study conducted in adult critically ill patients admitted to ICU due to severe sepsis requiring broad-spectrum antibiotics with a high risk of fungal infection. Both medical and surgical patients with any type of infection (pulmonary, abdominal, urinary tract, etc.) were included. Eligible consent was obtained from each patient or his or her attendant. Allergy to caspofungin, lack of consent to participate in the study, and age below 18 or above 80 years were the exclusion criteria. Thirty-three patients were enrolled in the study. Data from three patients were excluded from analysis due to technical issue with handling the samples, which made them unsuitable for analysis and the concentrations could not be determined.
The antibiotic regimen included broad-spectrum antibacterial antibiotics plus caspofungin as empirical antifungal therapy (70 mg i.v. on the first day, and 50 mg i.v. on the consecutive days) once daily. In three patients with liver failure caspofungin doses were reduced (50 mg i.v. initial and 35 mg i.v. maintenance dose). Any site of infection was treated in the manner.
Blood samples (3 ml) were collected 0.5, 2, 4, 8, 12, and 24 h after each dose of caspofungin for three consecutive days from the standard arterial cannula. Thirty minutes after each sample collection, blood was centrifuged for 10 min at 3,000 rpm. Subsequently, the supernatant was collected and frozen. Serum caspofungin concentrations were measured with high-performance liquid chromatography (HPLC).
Plasma samples were prepared for analysis according to a previously described procedure ([3]). A Dionex chromatographic system (Dionex, Sunnyvale, CA), equipped with a P580 LPG LC-6A gradient pump, UVD340S UV-visible detector, and a Rheodyne 7725 loop injector with a sufficient volume of 20 μl was employed in this study. Chromatographic separation was achieved on a Zorbax SB C18 column (150 × 4.6 mm × 5 μm) in isocratic mode. The mobile phase consisted of 20 mM triethylammonium phosphate buffer (pH 3.0): acetonitrile-methanol (50:40:10 [vol/vol/vol]; Fluka, HPLC grade). The mobile phase flow rate was 1.0 ml/min, and caspofungin absorbance was measured at 210 nm. The analytical method was validated in terms of linearity, the limits of detection (LOD) and quantification (LOQ), precision, and accuracy. The standard curves were linear over a concentration range from 0.25 to 10.0 μg/ml with an R^2 of 0.987. The LOD and LOQ values for caspofungin were 0.08 and 0.18 μg/ml, respectively. The intra- and interday accuracies ranged from 98.1 to 102.8%, and the coefficients of variation (CVs) were between 0.8 and 3.4%.
Population nonlinear mixed-effects modeling was conducted using NONMEM software (v7.3; Icon Development Solutions, Ellicott City, MD), GNU Fortran 95 compiler (GCC 4.6.0), and Wings for NONMEM (WFN741, http://wfn.sourceforge.net). The first-order conditional estimation method with η-ε interaction was employed throughout the model-building procedure. R computing environment (R Core Team 2019) was used for data processing and visualization.
The minimum value of the NONMEM objective function (OFV), typical goodness-of-fit diagnostic plots, and the evaluation of the precision of pharmacokinetic parameters and variability estimates were used to discriminate between various models during the model-building process. For hierarchical models, the decrease in OFV of 6.62 units defining an improved fit at a P of <0.01 for one additional parameter was considered to be statistically significant. The uncertainty of final model parameters was determined by nonparametric bootstrap with 1,000 replicates. The 90% confidence intervals (90% CI) for model parameters were constructed based on bootstrap results.
During the structural model-building step, candidate one-, two-, and three-compartment models were tested to describe the pharmacokinetics of caspofungin. […]

[2] = cited from earlier work
Excerpt: There are little data concerning the influence of extracorporeal membrane oxygenation (ECMO) on caspofungin pharmacokinetics ([9], [10]). ECMO is known to alter drug pharmacokinetics due to drug extraction during the procedure and a large volume of exogenous blood needed for ECMO circuit. The changes include increased volume of distribution and decreased clearance ([11]). The interactions between the ECMO circuit and the drug are not always easily predictable, but one of the vital drug characteristics determining circuit drug loss is the lipophilicity and protein binding ([12], [13]). Since ca ... || The changes in parameters with time require further investigation as they might be caused by a process that our study was not able to capture and describe. It could be the result of temporal changes in protein binding as caspofungin is highly protein-bound (97%) ([6]). Another possibility is nonlinearity in metabolic or distribution processes.

[3] = cited from earlier work; for clearance: ICU patients
Excerpt: Although the CL after the first dose (0.563 liters/h, 6.7%RSE) is well within the values reported in literature, the CL after the second dose (0.737 liters/h, 6.1%RSE) is within the highest previously reported values, and the CL after the third dose (1.01 liters/h, 9.1%RSE) almost doubles compared to CL after the first dose and literature CL values.

C. albicans = settings: preclinical pharmacodynamic target; cited from earlier work
Procedure: The simulations of PTA were based on model parameters from bootstrap samples (n = 1,000) in order to include the parameter uncertainty. Predictions of AUC at steady state were performed for the standard 50-mg maintenance dose.

C. glabrata = settings: preclinical pharmacodynamic target; cited from earlier work
C. parapsilosis = settings: preclinical pharmacodynamic target; cited from earlier work
[4] = cited from earlier work; for CL: healthy subjects
[5] = patients with liver failure, maintenance dose of 35 mg, from individual parameters

CC[C@H](C)C[C@H](C)CCCCCCCCC(=O)N[C@H]1C[C@@H](O)[C@@H](NCCN)NC(=O)[C@@H]2[C@@H](O)CCN2C(=O)[C@H]([C@H](O)CCN)NC(=O)[C@H]([C@H](O)[C@@H](O)c2ccc(O)cc2)NC(=O)[C@@H]2C[C@@H](O)CN2C(=O)[C@H]([C@@H](C)O)NC1=O [caspofungin]
decrease in exposure between doses ([1]; CL2 versus CL1): 24%
decrease in exposure between doses ([1]; CL3 versus CL1): 44%
decrease in caspofungin exposure ([1]; associated with increasing clearance with subsequent doses, ICU patients): > 20%
clearance ([1]; estimated during model building process, ICU patients, read-out: mean CL for all three occasions (converted)): 11.8 mL/min
clearance ([1]; typical clearance after first dose, 30 ICU patients, 70 mg i.v. day 1, 50 mg i.v. once daily after, HPLC-UV, final model, read-out: θCL day 1, Estimate (%RSE) (converted)): 9.38 mL/min
clearance ([1]; typical clearance after second dose, 30 ICU patients, i.v., final model, read-out: θCL day 2, Estimate (%RSE) (converted)): 12.3 mL/min
clearance ([1]; typical clearance after third dose, 30 ICU patients, i.v., final model, read-out: θCL day 3, Estimate (%RSE) (converted)): 16.8 mL/min
θQ, Estimate (%RSE) ([1]; intercompartmental clearance, 30 ICU patients, final model): 1.31 (15.7) liter/h
typical AUC0–24 ([1]; typical clearance after first dose (CL1)): 89 mg ⋅ h/liter
typical AUC0–24 ([1]; typical clearance after second dose (CL2)): 68 mg ⋅ h/liter
typical AUC0–24 ([1]; typical clearance after third dose (CL3)): 50 mg ⋅ h/liter
minimal AUC0–24 as % of the 98 mg ⋅ h/liter target ([1]; patients with liver failure, 35 mg maintenance): 23%
maximum AUC0–24 as % of the value required for efficacy ([1]; patients with liver failure, 35 mg maintenance, 98 mg ⋅ h/liter target): 62%
AUC0–24, maximum value [1, 5]: 61 mg ⋅ h/liter
AUC0–24, minimal value [1, 5]: 23 mg ⋅ h/liter
θV1 day 1, Estimate (%RSE) ([1]; volume of distribution of central compartment after first dose, 30 ICU patients, final model): 6.04 (7.0) liter
θV1 day 2, Estimate (%RSE) ([1]; volume of distribution of central compartment after second dose, 30 ICU patients, final model): 7.32 (5.3) liter
θV1 day 3, Estimate (%RSE) ([1]; volume of distribution of central compartment after third dose, 30 ICU patients, final model): 7.70 (5.3) liter
θV2, Estimate (%RSE) ([1]; volume of distribution of peripheral compartment, 30 ICU patients, final model): 5.13 (13.7) liter
protein bound [2]: 97%
mean clearance ([3]; ICU patients (Child-Pugh B score)): 0.55 L/h
clearance ([3]; day 3 of the study): 0.57 L/h
clearance ([3]; day 7 of the study): 0.54 L/h
clearance [3]: 0.66 L/h
CL, value provided in the drug label [3]: 0.72 L/h
mean clearance ([3]; patients undergoing CRRT): 0.62 L/h
mean clearance ([3]; patients with invasive aspergillosis, value for a 76-kg patient): 0.403 L/h
target AUC/MIC (C. albicans): 865
target AUC/MIC (C. glabrata): 450
target AUC/MIC (C. parapsilosis): 1,185
CL ([4]; sampling for 26 weeks): 0.579 L/h
CL ([4]; sampling for 28 days): 0.631 L/h
quantifiable concentrations as long as, after administration ([4]; radioactive labeled caspofungin): 22.3 weeks
